What all share (assay type): ADME, organism-based
Data set [1] is described as follows: Ratio of drug level in HIV-infected pregnant woman amniotic fluid to maternal blood plasma at 1250 mg, po BID by HPLC/UV analysis. The settings on record: female, human.
Data set [2] in a line: Drug level in HIV-infected pregnant woman cord blood plasma at 1250 mg, po BID by HPLC/UV analysis. The settings on record: human, in vivo.
Data set [3] is described as follows: Drug level in HIV-infected pregnant woman amniotic fluid at 1250 mg, po BID by HPLC/UV analysis. The settings on record: human, in vivo.
A short description of data set [4]: Drug level in HIV-infected pregnant woman maternal blood plasma at 1250 mg, po BID by HPLC/UV analysis. The settings on record: human, in vivo.
The nature of data set [5]: Ratio of drug level in HIV-infected pregnant woman cord blood plasma to maternal blood plasma at 1250 mg, po BID by HPLC/UV analysis. The settings on record: female, human.
The nature of data set [6]: Drug level in HIV-infected pregnant woman cord blood plasma at 150 mg, po BID by LC/MS/MS analysis. The settings on record: human, in vivo.
The nature of data set [7]: Drug level in HIV-infected pregnant woman maternal blood plasma at 150 mg, po BID by LC/MS/MS analysis. The settings on record: human, in vivo.
Data set [8] in a line: Drug level in HIV-infected pregnant woman amniotic fluid at 150 mg, po BID by LC/MS/MS analysis. The settings on record: human, in vivo.
Data set [9] in a line: Drug level in HIV-infected pregnant woman cord blood plasma at 400 mg, po BID by HPLC/UV analysis. The settings on record: human, in vivo.
Data set [10] in a line: Drug level in HIV-infected pregnant woman amniotic fluid at 400 mg, po BID by HPLC/UV analysis. The settings on record: human, in vivo.
Data set [11] is described as follows: Drug level in HIV-infected pregnant woman maternal blood plasma at 400 mg, po BID by HPLC/UV analysis. The settings on record: human, in vivo.
The nature of data set [12]: Drug level in HIV-infected pregnant woman maternal blood plasma at 200 mg, po BID by HPLC/UV analysis. The settings on record: human, in vivo.
A short description of data set [13]: Drug level in HIV-infected pregnant woman amniotic fluid at 200 mg, po BID by HPLC/UV analysis. The settings on record: human, in vivo.
Data set [14] is described as follows: Ratio of drug level in HIV-infected pregnant woman cord blood plasma to maternal blood plasma at 200 mg, po BID by HPLC/UV analysis. The settings on record: female, human.
A short description of data set [15]: Ratio of drug level in HIV-infected pregnant woman amniotic fluid to maternal blood plasma at 200 mg, po BID by HPLC/UV analysis. The settings on record: female, human.
The nature of data set [16]: Drug level in HIV-infected pregnant woman cord blood plasma at 200 mg, po BID by HPLC/UV analysis. The settings on record: human, in vivo.
A short description of data set [17]: Drug level in HIV-infected pregnant woman cord blood plasma at 100 mg, po BID by HPLC/UV analysis. The settings on record: human, in vivo.
Data set [18] can be described thus: Drug level in HIV-infected pregnant woman maternal blood plasma at 100 mg, po BID by HPLC/UV analysis. The settings on record: human, in vivo.
The nature of data set [19]: Ratio of drug level in HIV-infected pregnant woman cord blood plasma to maternal blood plasma at 100 mg, po BID by HPLC/UV analysis. The settings on record: female, human.
The nature of data set [20]: Ratio of drug level in HIV-infected pregnant woman amniotic fluid to maternal blood plasma at 100 mg, po BID by HPLC/UV analysis. The settings on record: female, human.
Data set [21] in a line: Drug level in HIV-infected pregnant woman amniotic fluid at 100 mg, po BID by HPLC/UV analysis. The settings on record: human, in vivo.
Data set [22] is described as follows: Ratio of drug level in HIV-infected pregnant woman amniotic fluid to maternal blood plasma at 300 mg, po QD by LC/MS/MS analysis. The settings on record: female, human.
Data set [23] can be described thus: Drug level in HIV-infected pregnant woman maternal blood plasma at 300 mg, po QD by LC/MS/MS analysis. The settings on record: human, in vivo.
A short description of data set [24]: Drug level in HIV-infected pregnant woman amniotic fluid at 300 mg, po QD by LC/MS/MS analysis. The settings on record: human, in vivo.
Data set [25] can be described thus: Ratio of drug level in HIV-infected pregnant woman cord blood plasma to maternal blood plasma at 300 mg, po QD by LC/MS/MS analysis. The settings on record: female, human.
Data set [26] is described as follows: Drug level in HIV-infected pregnant woman cord blood plasma at 300 mg, po QD by LC/MS/MS analysis. The settings on record: human, in vivo.
Data set [27] can be described thus: Drug level in HIV-infected pregnant woman maternal blood plasma at 300 mg, po BID by LC/MS/MS analysis. The settings on record: human, in vivo.
The nature of data set [28]: Drug level in HIV-infected pregnant woman amniotic fluid at 300 mg, po BID by LC/MS/MS analysis. The settings on record: human, in vivo.
Data set [29] can be described thus: Drug level in HIV-infected pregnant woman cord blood plasma at 300 mg, po BID by LC/MS/MS analysis. The settings on record: human, in vivo.

The source of these data is ChEMBL document CHEMBL1649445, “Genital tract, cord blood, and amniotic fluid exposures of seven antiretroviral drugs during and after pregnancy in human immunodeficiency virus type 1-infected women” (Antimicrob Agents Chemother, 2009).

As to `Cc1c(O)cccc1C(=O)N[C@@H](CSc1ccccc1)[C@H](O)CN1C[C@H]2CCCC[C@H]2C[C@H]1C(=O)NC(C)(C)C`, the partition ratio (Kp) (usually tissue or fluid exposure divided by exposure in the circulation) in data set [1] came to 1; in data set [5], 0.49. Also, the values for the Drug uptake in data set [2], in data set [3] and in [4] were 25 ng/mL, 12 ng/mL and 65 ng/mL, respectively.

On to `Nc1ccn([C@@H]2CS[C@H](CO)O2)c(=O)n1` [LAMIVUDINE], for which the Drug uptake in data set [6] was determined as 216 ng/mL; in [7], 271 ng/mL; in data set [8], 931 ng/mL.

In the case of `Cc1cccc(C)c1OCC(=O)N[C@@H](Cc1ccccc1)[C@@H](O)C[C@H](Cc1ccccc1)NC(=O)[C@H](C(C)C)N1CCCNC1=O` [LOPINAVIR], the Drug uptake in data set [9] is 80 ng/mL; in [10], 60 ng/mL; in data set [11], 3451 ng/mL.

As to `Cc1ccnc2c1NC(=O)c1cccnc1N2C1CC1` [NEVIRAPINE], the Drug uptake stood at 2595 ng/mL in data set [12], 1385 ng/mL in [13] and 1538 ng/mL in data set [16]. Besides, the Kp in [14] came to 0.59; in [15] it was 0.53.

In the case of `CC(C)c1nc(CN(C)C(=O)N[C@H](C(=O)N[C@@H](Cc2ccccc2)C[C@H](O)[C@H](Cc2ccccc2)NC(=O)OCc2cncs2)C(C)C)cs1` [RITONAVIR], the Drug uptake in [17] was 20 ng/mL; in [18], 256 ng/mL; in [21], 12 ng/mL. Besides, the Kp in data set [19] stood at 0.55; in data set [20], 0.02.

As to `C[C@H](Cn1cnc2c(N)ncnc21)OCP(=O)(O)O` [TENOFOVIR ANHYDROUS], the figures for the Kp in [22] and in data set [25] were 158 and 6, respectively. For the same compound, the values for the Drug uptake in data set [23], in data set [24] and in [26] were 5 ng/mL, 791 ng/mL and 30 ng/mL, respectively.

`Cc1cn([C@H]2C[C@H](N=[N+]=[N-])[C@@H](CO)O2)c(=O)[nH]c1=O` [ZIDOVUDINE]: the Drug uptake in [27] was 557 ng/mL; in [28], 2249 ng/mL; in data set [29] it was 605 ng/mL.
